Results reported in patent US7977322B2 (Vertex Pharmaceuticals Incorporated, priority 2004, dated 2011).

Target: T1, ΔF508-CFTR (Homo sapiens, UniProt P13569, DEL508-508)
T1 construct: expressed in transfected cells
Assay: Membrane potential optical (FRET/VIPR) assay, identification of correction compounds
Assay type: cell-based
Settings: Table 3, assay not given; for Emax: read-out: % Activity / % Efficacy (relative efficacy)
Description: I) Membrane Potential Optical Methods for Assaying ΔF508-CFTR Modulation Properties of Compounds
These voltage sensitive assays are based on the change in fluorescence resonant energy transfer (FRET) between the membrane-soluble, voltage-sensitive dye, DiSBAC2(3), and a fluorescent phospholipid, CC2-DMPE, which is attached to the outer leaflet of the plasma membrane and acts as a FRET donor. Changes in membrane potential (Vm) cause the negatively charged DiSBAC2(3) to redistribute across the plasma membrane and the amount of energy transfer from CC2-DMPE changes accordingly. The changes in fluorescence emission were monitored using VIPR™ II, which is an integrated liquid handler and fluorescent detector designed to conduct cell-based screens in 96- or 384-well microtiter plates.
Identification of Correction Compounds
To identify small molecules that correct the trafficking defect associated with ΔF508-CFTR; a single-addition HTS assay format was developed. The cells were incubated in serum-free medium for 16 hrs at 37° C. in the presence or absence (negative control) of test compound. As a positive control, cells plated in 384-well plates were incubated for 16 hrs at 27° C. to “temperature-correct” ΔF508-CFTR. The cells were subsequently rinsed 3× with Krebs Ringers solution and loaded with the voltage-sensitive dyes. To activate ΔF508-CFTR, 10 μM forskolin and the CFTR potentiator, genistein (20 μM), were added along with Cl^− free medium to each well. The addition of Cl^− free medium promoted Cl^− efflux in response to ΔF508-CFTR activation and the resulting membrane depolarization was optically monitored using the FRET-based voltage-sensor dyes.
• Bath Solution #1: (in mM) NaCl 160, KCl 4.5, CaCl2 2, MgCl2 1, HEPES 10, pH 7.4 with NaOH. • Chloride-free bath solution: Chloride salts in Bath Solution #1 are substituted with gluconate salts. • CC2-DMPE: Prepared as a 10 mM stock solution in DMSO and stored at −20° C. • DiSBAC2(3): Prepared as a 10 mM stock in DMSO and stored at −20° C.
NIH3T3 mouse fibroblasts stably expressing ΔF508-CFTR are used for optical measurements of membrane potential. The cells are maintained at 37° C. in 5% CO2 and 90% humidity in Dulbecco's modified Eagle's medium supplemented with 2 mM glutamine, 10% fetal bovine serum, 1×NEAA, β-ME, 1×pen/strep, and 25 mM HEPES in 175 cm^2 culture flasks. For all optical assays, the cells were seeded at 30,000/well in 384-well matrigel-coated plates and cultured for 2 hrs at 37° C. before culturing at 27° C. for 24 hrs. for the potentiator assay.

T1 sequence (P13569 with tags, fused parts or gaps DEL508-508): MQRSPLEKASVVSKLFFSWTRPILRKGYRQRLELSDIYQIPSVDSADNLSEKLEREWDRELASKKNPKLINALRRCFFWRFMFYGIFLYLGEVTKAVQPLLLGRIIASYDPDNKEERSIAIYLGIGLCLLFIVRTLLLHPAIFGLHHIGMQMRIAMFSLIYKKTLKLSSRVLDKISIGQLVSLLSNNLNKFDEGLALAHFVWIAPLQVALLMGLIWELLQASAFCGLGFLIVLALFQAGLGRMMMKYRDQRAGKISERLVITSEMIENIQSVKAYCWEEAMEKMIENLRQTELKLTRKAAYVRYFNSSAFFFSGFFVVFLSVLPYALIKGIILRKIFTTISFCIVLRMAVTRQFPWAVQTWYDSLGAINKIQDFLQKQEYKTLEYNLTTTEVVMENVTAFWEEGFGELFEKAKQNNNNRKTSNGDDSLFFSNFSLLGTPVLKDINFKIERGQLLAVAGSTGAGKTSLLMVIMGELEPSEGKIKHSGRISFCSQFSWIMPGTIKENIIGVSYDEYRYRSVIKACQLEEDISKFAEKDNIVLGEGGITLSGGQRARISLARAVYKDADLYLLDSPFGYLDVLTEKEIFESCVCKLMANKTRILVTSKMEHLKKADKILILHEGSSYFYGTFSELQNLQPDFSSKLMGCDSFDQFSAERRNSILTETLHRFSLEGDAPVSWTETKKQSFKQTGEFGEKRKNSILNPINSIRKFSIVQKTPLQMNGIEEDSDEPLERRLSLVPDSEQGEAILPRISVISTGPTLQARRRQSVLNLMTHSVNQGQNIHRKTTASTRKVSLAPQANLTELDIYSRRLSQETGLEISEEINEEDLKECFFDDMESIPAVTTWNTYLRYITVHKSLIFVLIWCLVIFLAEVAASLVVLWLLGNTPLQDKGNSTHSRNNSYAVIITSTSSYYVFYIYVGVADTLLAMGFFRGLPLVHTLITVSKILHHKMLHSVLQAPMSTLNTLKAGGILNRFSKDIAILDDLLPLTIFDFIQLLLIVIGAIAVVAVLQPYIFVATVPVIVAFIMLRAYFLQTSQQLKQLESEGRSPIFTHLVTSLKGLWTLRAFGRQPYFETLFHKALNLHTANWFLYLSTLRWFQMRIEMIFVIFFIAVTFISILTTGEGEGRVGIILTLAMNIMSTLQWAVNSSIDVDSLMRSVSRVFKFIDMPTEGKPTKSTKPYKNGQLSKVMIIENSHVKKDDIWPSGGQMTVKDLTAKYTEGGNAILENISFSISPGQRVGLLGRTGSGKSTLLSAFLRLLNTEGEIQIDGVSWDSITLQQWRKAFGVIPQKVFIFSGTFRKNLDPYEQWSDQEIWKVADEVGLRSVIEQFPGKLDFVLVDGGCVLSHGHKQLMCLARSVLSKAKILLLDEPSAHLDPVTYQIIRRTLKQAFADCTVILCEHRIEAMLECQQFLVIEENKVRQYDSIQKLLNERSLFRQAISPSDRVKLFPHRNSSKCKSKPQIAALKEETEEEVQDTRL

SMILES	EC50	Emax	% Activity / % Efficacy (relative efficacy)
O=C(Nc1ncc(-c2ccncc2)s1)C1(c2ccc3c(c2)OCO3)CC1 [Example 299]	10 to 25 µM	25 to 100%	–
COc1ccc(CC2(C(=O)Nc3ncc(Cc4ccccc4Cl)s3)CC2)cc1 [Example 201]	< 10 µM	–	++ (“++” means between 25% to 100%)
COc1ccc(C(c2cnc(NC(=O)C3(c4ccc5c(c4)OCO5)CC3)s2)N2CCCC2)cc1 (stereo not shown) [Example 362]	10 to 25 µM	> 100%	–
O=C(Nc1ncc(C(c2ccccc2)N2CCCC2)s1)C1(c2ccc3c(c2)OCO3)CC1 (stereo not shown) [Example 359]	< 10 µM	> 100%	–
CCN(CC)C(c1ccccc1)c1cnc(NC(=O)C2(c3ccc4c(c3)OCO4)CC2)s1 (stereo not shown) [Example 372]	< 10 µM	> 100%	–
COc1ccc(C2(C(=O)Nc3ncc(Cc4cnccc4OC)s3)CC2)cc1 [Example 242]	< 10 µM	–	+++ (“+++” means>100%)
COc1cccc(C(c2cnc(NC(=O)C3(c4ccc5c(c4)OCO5)CC3)s2)N2CCOCC2)c1 (stereo not shown) [Example 374]	< 10 µM	> 100%	–
O=C(O)c1ccccc1Sc1cnc(NC(=O)C2(c3ccc4c(c3)OCO4)CC2)s1 [Example 101]	< 10 µM	–	+++ (“+++” means>100%)
O=C(O)c1cccc(Sc2cnc(NC(=O)C3(c4ccc5c(c4)OCO5)CC3)s2)c1 [Example 106]	< 10 µM	–	+++ (“+++” means>100%)
CN(C)CCNC(c1cnc(NC(=O)C2(c3ccc4c(c3)OCO4)CC2)s1)c1ccccc1Cl (stereo not shown) [Example 187]	< 10 µM	–	+++ (“+++” means>100%)
COc1ccc(C2(C(=O)Nc3ncc(Cc4cccc(Cl)c4)o3)CC2)cc1 [Example 153]	< 10 µM	–	++ (“++” means between 25% to 100%)
O=C(Nc1nc(-c2ccc(Cl)c(Cl)c2)cs1)C1(c2ccc3c(c2)OCO3)CC1 [Example 117]	10 to 25 µM	25 to 100%	–
CSc1ccc(C2(C(=O)Nc3ncc(Cc4ccccc4Cl)s3)CC2)cc1 [Example 175]	< 10 µM	–	+++ (“+++” means>100%)
COC(c1cnc(NC(=O)C2(c3ccc4c(c3)OCO4)CC2)s1)c1ccccc1Cl (stereo not shown) [Example 260]	< 10 µM	–	+++ (“+++” means>100%)
CS(=O)(=O)c1ccc(C(c2cnc(NC(=O)C3(c4ccc5c(c4)OCO5)CC3)s2)N2CCC(O)CC2)cc1 (stereo not shown) [Example 380]	10 to 25 µM	25 to 100%	–
CCOC(=O)c1nc(NC(=O)C2(c3ccc(OC)cc3)CC2)sc1Cc1ccccc1OC [Example 195]	< 10 µM	–	+++ (“+++” means>100%)

SMILES	EC50	Emax	% Activity / % Efficacy (relative efficacy)
CC(C)(C)C(c1cnc(NC(=O)C2(c3ccc4c(c3)OCO4)CC2)s1)N1CCC[C@H]1C(N)=O (stereo partly shown) [Example 384]	10 to 25 µM	> 100%	–
COc1cccc(C(c2cnc(NC(=O)C3(c4ccc5c(c4)OCO5)CC3)s2)N2CC[C@@H](O)C2)c1 (stereo partly shown) [Example 367]	< 10 µM	> 100%	–
COc1ccc(C2(C(=O)Nc3ncc(Sc4cccc(C(=O)O)c4)s3)CC2)cc1 [Example 97]	< 10 µM	–	+++ (“+++” means>100%)
COc1ccccc1Sc1cnc(NC(=O)C2(c3ccc4c(c3)OCO4)CC2)s1 [Example 99]	< 10 µM	–	+++ (“+++” means>100%)
COc1ccc(C2(C(=O)Nc3ncc([S+]([O-])c4ccccc4OC)s3)CC2)cc1 (stereo not shown) [Example 87]	< 10 µM	–	+++ (“+++” means>100%)
COc1ccc(C(c2cnc(NC(=O)C3(c4ccc5c(c4)OCO5)CC3)s2)N2CC[C@@H](O)C2)cc1 (stereo partly shown) [Example 352]	10 to 25 µM	> 100%	–
COc1ccc(C2(C(=O)Nc3ncc(Cc4cc(F)ccc4Cl)s3)CC2)cc1 [Example 90]	< 10 µM	–	++ (“++” means between 25% to 100%)
COC[C@@H]1CCCN1C(c1cccc(OC)c1)c1cnc(NC(=O)C2(c3ccc4c(c3)OCO4)CC2)s1 (stereo partly shown) [Example 345]	< 10 µM	25 to 100%	–
O=C(Nc1ncc([C@@H](O)c2ccccc2Cl)s1)C1(c2ccc3c(c2)OCO3)CC1 [Example 322]	< 10 µM	> 100%	–
COc1ccc(C2(C(=O)Nc3ncc(C4(c5ccccc5OC)CC4)s3)CC2)cc1 [Example 243]	< 10 µM	–	+++ (“+++” means>100%)
O=C(Nc1nc2c(s1)-c1ccccc1CC2)C1(c2ccc3c(c2)OCO3)CC1 [Example 110]	< 10 µM	–	+++ (“+++” means>100%)
COc1ccc(C2(C(=O)Nc3ncc(Cc4ccccc4Cl)n3C)CC2)cc1 [Example 63]	< 10 µM	–	+++ (“+++” means>100%)
COc1ccc(C2(C(=O)Nc3ncc(C)s3)CC2)cc1 [Example 64]	< 10 µM	–	+++ (“+++” means>100%)
COc1ccc(C2(C(=O)Nc3ncc(Sc4ccccc4C(=O)O)s3)CC2)cc1 [Example 104]	< 10 µM	–	+++ (“+++” means>100%)
CCCc1nc(NC(=O)C2(c3ccc(OC)cc3)CC2)sc1C(=O)OCC [Example 184]	< 10 µM	–	+++ (“+++” means>100%)
COc1ccc(C2(C(=O)Nc3ncc(Cc4ncccc4OC)s3)CC2)cc1 [Example 263]	< 10 µM	–	+++ (“+++” means>100%)

The next lines start with the values.

EC50	Emax	% Activity / % Efficacy (relative efficacy)	SMILES
< 10 µM	> 100%	–	O=C(Nc1ncc(C(NC2CC2)c2ccccc2Cl)s1)C1(c2ccc3c(c2)OCO3)CC1 (stereo not shown) [Example 415]
< 10 µM	> 100%	–	Cc1ccccc1C(c1cnc(NC(=O)C2(c3ccc4c(c3)OCO4)CC2)s1)N1CCCC1 (stereo not shown) [Example 469]
< 10 µM	> 100%	–	CCN(CCO)C(c1cnc(NC(=O)C2(c3ccc4c(c3)OCO4)CC2)s1)c1ccccc1Cl (stereo not shown) [Example 410]
10 to 25 µM	> 100%	–	CC(C)(C)C(c1cnc(NC(=O)C2(c3ccc4c(c3)OCO4)CC2)s1)N1CCCC1 (stereo not shown) [Example 391]
< 10 µM	25 to 100%	–	O=C(Nc1ncc(C(Cc2ccccc2Cl)N2CCCC2)s1)C1(c2ccc3c(c2)OCO3)CC1 (stereo not shown) [Example 453]
< 10 µM	> 100%	–	CCC[C@H](CO)NC(c1cnc(NC(=O)C2(c3ccc4c(c3)OCO4)CC2)s1)c1ccccc1Cl (stereo partly shown) [Example 489]
< 10 µM	> 100%	–	O=C(Nc1ncc(C(Cc2ccccc2Cl)N2CCCCC2)s1)C1(c2ccc3c(c2)OCO3)CC1 (stereo not shown) [Example 454]
< 10 µM	> 100%	–	O=C(Nc1ncc(C(c2ccccc2F)N2CC[C@@H](O)C2)s1)C1(c2ccc3c(c2)OCO3)CC1 (stereo partly shown) [Example 472]
< 10 µM	> 100%	–	CCCC[C@@H](CO)NC(c1cnc(NC(=O)C2(c3ccc4c(c3)OCO4)CC2)s1)c1ccccc1Cl (stereo partly shown) [Example 491]
< 10 µM	> 100%	–	CC(C)(C)CCNC(c1cnc(NC(=O)C2(c3ccc4c(c3)OCO4)CC2)s1)c1ccccc1Cl (stereo not shown) [Example 428]
< 10 µM	25 to 100%	–	O=C(Nc1ncc(C(NCCN2CCCC2)c2ccccc2Cl)s1)C1(c2ccc3c(c2)OCO3)CC1 (stereo not shown) [Example 406]
< 10 µM	> 100%	–	O=C(Nc1ncc(C(Cc2ccccc2Cl)N2CCOCC2)s1)C1(c2ccc3c(c2)OCO3)CC1 (stereo not shown) [Example 461]
< 10 µM	> 100%	–	O=C(Nc1ncc(C(c2ccccc2F)N2CCCC2)s1)C1(c2ccc3c(c2)OCO3)CC1 (stereo not shown) [Example 465]
10 to 25 µM	> 100%	–	CCC(c1cnc(NC(=O)C2(c3ccc4c(c3)OCO4)CC2)s1)N1CC[C@@H](O)C1 (stereo partly shown) [Example 402]
< 10 µM	> 100%	–	CC(C)C[C@H](CO)NC(c1cnc(NC(=O)C2(c3ccc4c(c3)OCO4)CC2)s1)c1ccccc1Cl (stereo partly shown) [Example 438]
< 10 µM	> 100%	–	O=C(Nc1ncc(C(NCCO)c2ccccc2Cl)s1)C1(c2ccc3c(c2)OCO3)CC1 (stereo not shown) [Example 416]
< 10 µM	25 to 100%	–	O=C(Nc1ncc(C(NCCCn2ccnc2)c2ccccc2Cl)s1)C1(c2ccc3c(c2)OCO3)CC1 (stereo not shown) [Example 408]
< 10 µM	25 to 100%	–	CCOc1ccccc1C(c1cnc(NC(=O)C2(c3ccc4c(c3)OCO4)CC2)s1)N1CCCC1 (stereo not shown) [Example 463]
